# Reference: patent US8598211B2, “Carboxamide compounds and their use as calpain inhibitors IV” (AbbVie Inc., priority 2009, dated 2013)
# pKi: −log10 of the molar value.
# Biological target: T1, cathepsin S (Homo sapiens, UniProt P25774)
# T1 construct: purchased Calbiochem 219343; host or cells: E. coli
# Assay: Cathepsin S kinetic fluorescence enzyme inhibition assay
# Format: biochemical
# Conditions: selectivity ratio versus calpain
# Experimental: 0.5 nM recombinant human cathepsin S from E. coli (Calbiochem #219343), 20 μM Z-Val-Val-Arg-AMC (Bachem #I-1540) as substrate in 50 mM MES, 2 mM EDTA, 0.05% Brij 35, 2.5 mM L-cysteine, pH 6.0, room temperature.
# T1 sequence (P25774 115-331): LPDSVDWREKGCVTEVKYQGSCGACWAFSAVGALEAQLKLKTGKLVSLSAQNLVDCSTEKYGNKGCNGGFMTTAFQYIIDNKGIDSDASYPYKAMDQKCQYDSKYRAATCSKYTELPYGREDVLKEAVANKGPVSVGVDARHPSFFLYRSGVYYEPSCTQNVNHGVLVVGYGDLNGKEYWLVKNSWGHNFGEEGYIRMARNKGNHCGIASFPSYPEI
row,Sel cat. S (Ki(cathepsin S)/Ki(calpain) ratio),Structure (SMILES)
1,++ (10<Ki(cathepsin S)/Ki(calpain)≦50),"O=C(NC1CC1)C(=O)C(Cc1ccc(OCCN2CCOCC2)cc1)NC(=O)c1cccnc1-n1ccc(-c2ccccc2)n1 (stereo not drawn) [Example 23, N-[4-(Cyclopropylamino)-1-{4-[2-(4-morpholinyl)ethoxy]phenyl}-3,4-dioxo-2-butanyl]-2-(3-phenyl-1H-pyrazol-1-yl)nicotinamide]"
2,++ (10<Ki(cathepsin S)/Ki(calpain)≦50),"O=C(NC1CC1)C(=O)C(Cc1ccc(CN2CCOCC2)cc1)NC(=O)c1cccnc1-n1ccc(-c2ccccc2)n1 (stereo not drawn) [Example 25, N-{4-(Cyclopropylamino)-1-[4-(4-morpholinylmethyl)phenyl]-3,4-dioxo-2-butanyl}-2-(3-phenyl-1H-pyrazol-1-yl)nicotinamide]"

# Biological target: T2, cathepsin L (Homo sapiens, UniProt P07711)
# T2 construct: cathepsin L—isolated from human liver; purchased Calbiochem 219402; host or cells: human liver (natural source)
# T2 sequence (P07711 114-333): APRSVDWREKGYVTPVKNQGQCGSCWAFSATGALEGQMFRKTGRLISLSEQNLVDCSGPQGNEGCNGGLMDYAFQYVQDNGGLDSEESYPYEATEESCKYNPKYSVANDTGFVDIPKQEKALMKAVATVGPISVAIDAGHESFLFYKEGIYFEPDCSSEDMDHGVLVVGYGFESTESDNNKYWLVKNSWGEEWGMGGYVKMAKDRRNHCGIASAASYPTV
# Assay: Cathepsin L kinetic fluorescence enzyme inhibition assay
# Format: biochemical
# Conditions: selectivity ratio versus calpain
# Experimental: 1 nM cathepsin L—isolated from human liver (Calbiochem #219402), 2 μM Z-Phe-Arg-AMC (Bachem #I-1160) as substrate in 50 mM MES, 2 mM EDTA, 0.05% Brij 35, 2.5 mM L-cysteine, pH 6.0, room temperature.
row,Sel cat. L (Ki(cathepsin L)/Ki(calpain) ratio),Structure (SMILES)
1,++ (10<Ki(cathepsin L)/Ki(calpain)≦50),"O=C(NC1CC1)C(=O)C(Cc1ccc(OCCN2CCOCC2)cc1)NC(=O)c1cccnc1-n1ccc(-c2ccccc2)n1 (stereo not drawn) [Example 23, N-[4-(Cyclopropylamino)-1-{4-[2-(4-morpholinyl)ethoxy]phenyl}-3,4-dioxo-2-butanyl]-2-(3-phenyl-1H-pyrazol-1-yl)nicotinamide]"

# Biological target: T3, calpain-I (Homo sapiens, UniProt P07384)
# T3 construct: calpain-I—isolated from human erythrocytes; purchased Calbiochem 208713; host or cells: human erythrocytes (natural source)
# T3 sequence (P07384 1-714): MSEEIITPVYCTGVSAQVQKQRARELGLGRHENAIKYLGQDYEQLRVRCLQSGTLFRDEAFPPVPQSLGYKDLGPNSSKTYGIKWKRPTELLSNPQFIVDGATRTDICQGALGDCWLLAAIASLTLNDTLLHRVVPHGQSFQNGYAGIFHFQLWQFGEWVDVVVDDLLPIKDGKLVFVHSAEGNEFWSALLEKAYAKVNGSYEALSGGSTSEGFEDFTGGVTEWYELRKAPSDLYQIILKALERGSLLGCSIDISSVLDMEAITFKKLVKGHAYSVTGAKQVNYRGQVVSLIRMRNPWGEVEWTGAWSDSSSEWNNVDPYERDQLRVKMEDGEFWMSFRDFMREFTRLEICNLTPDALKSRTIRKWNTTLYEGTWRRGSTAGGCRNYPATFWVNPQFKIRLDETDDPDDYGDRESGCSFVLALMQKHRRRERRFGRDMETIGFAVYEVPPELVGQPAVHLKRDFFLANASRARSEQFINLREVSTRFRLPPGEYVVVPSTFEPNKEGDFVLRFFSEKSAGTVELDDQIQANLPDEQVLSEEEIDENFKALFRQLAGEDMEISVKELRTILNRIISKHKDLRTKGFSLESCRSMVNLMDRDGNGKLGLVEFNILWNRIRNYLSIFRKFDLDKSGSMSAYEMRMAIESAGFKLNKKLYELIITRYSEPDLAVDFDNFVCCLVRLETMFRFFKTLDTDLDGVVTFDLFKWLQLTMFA
# T3 sequence (P04632 1-268 partner): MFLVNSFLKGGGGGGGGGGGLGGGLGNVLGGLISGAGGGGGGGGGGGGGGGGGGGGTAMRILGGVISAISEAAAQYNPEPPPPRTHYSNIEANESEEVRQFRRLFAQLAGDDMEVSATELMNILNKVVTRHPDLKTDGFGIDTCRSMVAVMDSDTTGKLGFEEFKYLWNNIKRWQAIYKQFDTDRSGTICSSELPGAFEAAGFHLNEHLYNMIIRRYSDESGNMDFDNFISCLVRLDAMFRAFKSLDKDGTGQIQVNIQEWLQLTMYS
# Assay: Calpain I kinetic fluorescence enzyme inhibition assay
# Format: biochemical
# Conditions: calpain-I from human erythrocytes, Suc-Leu-Tyr-AMC, pH 7.3; apparent Ki from IC50 by Cheng-Prussoff
# Experimental: Testing for blockade of the corresponding enzymic activities was carried out by means of kinetic fluorescence assays (excitation 390 nm, emission 460 nm).
# Apparent Ki values were calculated from the experimentally determined IC50 values by the Cheng-Prussoff relation assuming a reversible competitive enzyme inhibition.
# 20 nM calpain-I—isolated from human erythrocytes (Calbiochem #208713), 100 μM Suc-Leu-Tyr-AMC (Bachem #I-1355) as substrate in buffer with 62 mM imidazole, 0.3 mM CaCl2, 0.10% CHAPS, 0.05% BSA, 1 mM DTT at pH 7.3 and room temperature.
row,pKi,Structure (SMILES)
1,6.00 to 6.10,"O=C(NC1CC1)C(=O)C(Cc1ccccc1)NC(=O)c1cccnc1-n1ccc(-c2ccc(F)cc2)n1 (stereo not drawn) [Example 19, N-[4-(Cyclopropylamino)-3,4-dioxo-1-phenyl-2-butanyl]-2-[3-(4-fluorophenyl)-1H-pyrazol-1-yl]nicotinamide]"
2,6.10 to 6.40,"C=CCNC(=O)C(=O)C(Cc1ccccc1)NC(=O)c1cccnc1-n1ccc(-c2ccccc2)n1 (stereo not drawn) [Example 6, N-[3,4-Dioxo-1-phenyl-4-(prop-2-en-1-ylamino)butan-2-yl]-2-(3-phenyl-1H-pyrazol-1-yl)pyridine-3-carboxamide]"
3,6.10 to 6.40,"O=C(NCC1CC1)C(=O)C(Cc1ccccc1)NC(=O)c1cccnc1-n1ccc(-c2ccccc2)n1 (stereo not drawn) [Example 9, N-(4-(Cyclopropylmethylamino)-3,4-dioxo-1-phenylbutan-2-yl)-2-(3-phenyl-1H-pyrazol-1-yl)nicotinamide]"
4,> 6.60,"O=C(NCCCc1ccccn1)C(=O)C(Cc1ccccc1)NC(=O)c1cccnc1-n1ccc(-c2ccc(F)cc2)n1 (stereo not drawn) [Example 4, N-(3,4-Dioxo-1-phenyl-4-{[3-(pyridin-2-yl)propyl]amino}butan-2-yl)-2-[3-(4-fluorophenyl)-1H-pyrazol-1-yl]pyridine-3-carboxamide]"
5,> 6.60,"O=C(NCc1ccccn1)C(=O)C(Cc1ccccc1)NC(=O)c1cccnc1-n1ccc(-c2ccccc2)n1 (stereo not drawn) [Example 8, N-[4-(Pyridin-2-ylmethylamino)-3,4-dioxo-1-phenylbutan-2-yl]-2-(3-phenyl-1H-pyrazol-1-yl)pyridine-3-carboxamide]"
6,6.40 to 6.60,"CNC(=O)C(=O)C(Cc1ccccc1)NC(=O)c1cccnc1-n1ccc(-c2ccccc2)n1 (stereo not drawn) [Example 7, N-(4-(Methylamino)-3,4-dioxo-1-phenylbutan-2-yl)-2-(3-phenyl-1H-pyrazol-1-yl)nicotinamide, reference compound]"
7,> 6.60,"NC(=O)C(=O)C(Cc1ccccc1)NC(=O)c1cccnc1-n1ccc(-c2ccc(F)cc2)n1 (stereo not drawn) [Example 18, N-(3-Amino-1-benzyl-2,3-dioxopropyl)-2-[3-(4-fluorophenyl)-1H-pyrazol-1-yl]nicotinamide, reference compound]"
8,> 6.60,"O=C(NC1CC1)C(=O)C(Cc1ccccc1)NC(=O)c1cccnc1-n1ccc(-c2ccccc2)n1 (stereo not drawn) [Example 5, N-[4-(Cyclopropylamino)-3,4-dioxo-1-phenylbutan-2-yl]-2-(3-phenyl-1H-pyrazol-1-yl)pyridine-3-carboxamide]"
9,6.40 to 6.60,"O=C(NC1CC1)C(=O)C(Cc1cccc(F)c1)NC(=O)c1cccnc1-n1ccc(-c2ccccc2)n1 (stereo not drawn) [Example 14, N-(4-(Cyclopropylamino)-1-(3-fluorophenyl)-3,4-dioxobutan-2-yl)-2-(3-phenyl-1H-pyrazol-1-yl)nicotinamide]"
10,> 6.60,"O=C(NCc1ccccc1)C(=O)C(Cc1ccccc1)NC(=O)c1cccnc1-n1ccc(-c2ccccc2)n1 (stereo not drawn) [Example 16, N-(4-(Benzylamino)-3,4-dioxo-1-phenylbutan-2-yl)-2-(3-phenyl-1H-pyrazol-1-yl)nicotinamide]"
11,6.10 to 6.40,"O=C(NC1CCC1)C(=O)C(Cc1ccccc1)NC(=O)c1cccnc1-n1ccc(-c2ccccc2)n1 (stereo not drawn) [Example 10, N-(4-(Cyclobutylamino)-3,4-dioxo-1-phenylbutan-2-yl)-2-(3-phenyl-1H-pyrazol-1-yl)nicotinamide]"
12,6.40 to 6.60,"O=C(NCc1ccccn1)C(=O)C(Cc1ccccc1)NC(=O)c1cccnc1-n1ccc(-c2ccc(F)cc2)n1 (stereo not drawn) [Example 2, N-{3,4-Dioxo-1-phenyl-4-[(pyridin-2-ylmethyl)amino]butan-2-yl}-2-[3-(4-fluorophenyl)-1H-pyrazol-1-yl]pyridine-3-carboxamide]"
13,> 6.60,"O=C(NCc1nc2ccccc2o1)C(=O)C(Cc1ccccc1)NC(=O)c1cccnc1-n1ccc(-c2ccccc2)n1 (stereo not drawn) [Example 15, N-{4-[(1,3-Benzoxazol-2-ylmethyl)amino]-3,4-dioxo-1-phenylbutan-2-yl}-2-(3-phenyl-1H-pyrazol-1-yl)pyridine-3-carboxamide]"
14,6.40 to 6.60,"O=C(NCCc1ccccc1)C(=O)C(Cc1ccccc1)NC(=O)c1cccnc1-n1ccc(-c2ccccc2)n1 (stereo not drawn) [Example 17, N-(3,4-Dioxo-4-(phenethylamino)-1-phenylbutan-2-yl)-2-(3-phenyl-1H-pyrazol-1-yl)nicotinamide]"
15,6.10 to 6.40,"O=C(NC1CC1)C(=O)C(Cc1ccccc1)NC(=O)c1cccnc1-n1cc(F)c(-c2ccccc2)n1 (stereo not drawn) [Example 12, N-(4-(Cyclopropylamino)-3,4-dioxo-1-phenylbutan-2-yl)-2-(4-fluoro-3-phenyl-1H-pyrazol-1-yl)nicotinamide]"
16,> 6.60,"COC(=O)CNC(=O)C(=O)C(Cc1ccccc1)NC(=O)c1cccnc1-n1ccc(-c2ccccc2)n1 (stereo not drawn) [Example 21, Methyl N-[2-oxo-4-phenyl-3-({[2-(3-phenyl-1H-pyrazol-1-yl)-3-pyridinyl]carbonyl}amino)butanoyl]glycinat]"
17,6.10 to 6.40,"CCCNC(=O)C(=O)C(Cc1ccccc1)NC(=O)c1cccnc1-n1ccc(-c2ccccc2)n1 (stereo not drawn) [Example 11, N-(3,4-Dioxo-1-phenyl-4-(propylamino)butan-2-yl)-2-(3-phenyl-1H-pyrazol-1-yl)nicotinamide]"
18,6.10 to 6.40,"O=C(NC1CC1)C(=O)C(Cc1ccc(F)cc1)NC(=O)c1cccnc1-n1ccc(-c2ccccc2)n1 (stereo not drawn) [Example 13, N-(4-(Cyclopropylamino)-1-(4-fluorophenyl)-3,4-dioxobutan-2-yl)-2-(3-phenyl-1H-pyrazol-1-yl)nicotinamide]"
19,6.10 to 6.40,"O=C(NC1CC1)C(=O)C(Cc1ccc(OCCN2CCOCC2)cc1)NC(=O)c1cccnc1-n1ccc(-c2ccccc2)n1 (stereo not drawn) [Example 23, N-[4-(Cyclopropylamino)-1-{4-[2-(4-morpholinyl)ethoxy]phenyl}-3,4-dioxo-2-butanyl]-2-(3-phenyl-1H-pyrazol-1-yl)nicotinamide]"
20,6.10 to 6.40,"O=C(NC1CC1)C(=O)C(Cc1ccc(CN2CCOCC2)cc1)NC(=O)c1cccnc1-n1ccc(-c2ccccc2)n1 (stereo not drawn) [Example 25, N-{4-(Cyclopropylamino)-1-[4-(4-morpholinylmethyl)phenyl]-3,4-dioxo-2-butanyl}-2-(3-phenyl-1H-pyrazol-1-yl)nicotinamide]"
21,6.40 to 6.60,"O=C(NCc1ncco1)C(=O)C(Cc1ccccc1)NC(=O)c1cccnc1-n1ccc(-c2ccccc2)n1 (stereo not drawn) [Example 24, N-{4-[(1,3-Oxazol-2-ylmethyl)amino]-3,4-dioxo-1-phenyl-2-butanyl}-2-(3-phenyl-1H-pyrazol-1-yl)nicotinamide]"
